Laboratory results published in patent US20250295798A1, “LIGAND-DRUG CONJUGATE OF EXATECAN ANALOGUE, AND MEDICAL USE THEREOF” (BeiGene Switzerland GmbH, priority 2022, published 2025).
Structures can show the parent of a compound that is named as a salt.

How the values were obtained:
A375 = assay: Compounds cellular killing in A375; format: cell-based, human; conditions: for EC50 / Emax / Emax (%): A375, 6 days, Cell Titer-Glo; for potency compared with compound 1-A and 1-C: Table 18, A375 and Calu-6
Protocol: (§1) Seeding cells A375 (1E3/well) or Calu-6 (2E3/well) into 96-well plate (Greiner: 655090), 100 ul/well. Incubation at 37° C., 5% CO2, overnight.
(§2) Adding the fresh growth-medium containing the varying concentrations of compounds, 50 ul/well.
(§3) Incubation at 37° C., 5% CO2, 6 days.
(§4) The cell viability detected by Cell Titer-Glo (Promega, G7573). Add 70 µL/well of CellTiter-Glo® Reagent in each well.
(§5) Allow the plates to incubate at room temperature for 10 minutes to stabilize luminescent signal.
(§6) Analyze with Microplate Reader.
(§7) Seeding cells A375 ([…] or Calu-6 (2E3/well) into 96-well plate (Greiner: 655090), 100 ul/well. Incubation at 37° C., […], overnight.

Calu-6 = assay: Compounds cellular killing in Calu-6; format: cell-based, human; conditions: Calu-6, 6 days, Cell Titer-Glo
Protocol: as §1, §2, §3, §4, §5, §6, §7

Row | SMILES | Emax (Calu-6; Homo sapiens, Calu-6, […]) | EC50 (A375; Homo sapiens, A-375, […]) | Emax (A375; Homo sapiens, A-375, […]) | EC50 (Calu-6; Homo sapiens, Calu-6, […]) | other results
1 | CC[C@@]1(O)C(=O)OCc2c1cc1n(c2=O)Cc2c-1nc1cc3c(c4c1c2[C@@H](N)CC4)OCO3 [Example 1-10, (1S,10S)-1-amino-10-ethyl-10-hydroxy-1,2,3,10,13,16-hexahydro-11H,14H-benzo[de][1,3]dioxolo[4,5-g]pyrano[3′,4′:6,7]indolizino[1,2-b]quinoline-11,14-dione] | 97.7% | – | – | – | EC50 (A375; Homo sapiens, A-375): 0.4 nM; Emax (A375; Homo sapiens, A-375): 97.7%; EC50 (Calu-6; Homo sapiens): 0.3 nM
2 | CC[C@@]1(O)C(=O)OCc2c1cc1n(c2=O)Cc2c-1nc1cc(F)c(C)c3c1c2C(CNCCO)CC3 (stereo partly drawn) [Example 2-53, Nbenzyl (9S)-9-ethyl-5-fluoro-9-hydroxy-1-(((2-hydroxyethyl)amino)methyl)-4-methyl-1,2,3,9,12,15-hexahydro-10H,13H-benzo[de]pyrano[3′,4′:6,7]indolizino[1,2-b]quinoline-10,13-dione] | 98.7% | 5.1 nM | 99.9% | 1.6 nM | –
3 | CC[C@@]1(O)C(=O)OCc2c1cc1n(c2=O)Cc2c-1nc1cc(F)c(C)c3c1c2C(OCCO)CC3 (single isomer, unassigned) [Example 2-45] | 99.2% | – | – | – | EC50 (A375; Homo sapiens, A-375): 1.3 nM; Emax (A375; Homo sapiens, A-375): 100%; EC50 (Calu-6; Homo sapiens): 0.7 nM
4 | CC[C@@]1(O)C(=O)OCc2c1cc1n(c2=O)Cc2c-1nc1cc(Cl)c(C)c3c1c2[C@@H](NC(=O)CO)CC3 [Example 2-7, N-((1S,9S)-5-chloro-9-ethyl-9-hydroxy-4-methyl-10,13-dioxo-2,3,9,10,13,15-hexahydro-1H,12H-benzo[de]pyrano[3′,4′:6,7]indolizino[1,2-b]quinolin-1-yl)-2-hydroxyacetamide] | 99.1% | 2 nM | 99.1% | 0.7 nM | –
5 | CC[C@@]1(O)C(=O)OCc2c1cc1n(c2=O)Cc2c-1nc1cc(F)c(C)c3c1c2[C@@H](n1cc(CCO)nn1)CC3 [Example 2-23, (1S,9S)-9-ethyl-5-fluoro-9-hydroxy-1-(4-(2-hydroxyethyl)-1H-1,2,3-triazol-1-yl)-4-methyl-1,2,3,9,12,15-hexahydro-10H,13H-benzo[de]pyrano[3′,4′:6,7]indolizino[1,2-b]quinoline-10,13-dione] | 98.9% | 3.3 nM | 99.9% | 1.9 nM | –
6 | CC[C@@]1(O)C(=O)OCc2c1cc1n(c2=O)Cc2c-1nc1cc(F)c(C)c3c1c2[C@@H](n1cc(CCCO)nn1)CC3 [Example 2-24, (1S,9S)-9-ethyl-5-fluoro-9-hydroxy-1-(4-(3-hydroxypropyl)-1H-1,2,3-triazol-1-yl)-4-methyl-1,2,3,9,12,15-hexahydro-10H,13H-benzo[de]pyrano[3′,4′:6,7]indolizino[1,2-b]quinoline-10,13-dione] | 99.2% | 7.1 nM | 99.9% | 3.2 nM | –
7 | CC[C@@]1(O)C(=O)OCc2c1cc1n(c2=O)Cc2c-1nc1cc(F)c(C)c3c1c2C(CCO)CC3 (stereo partly drawn) [Example 2-46, (9S)-9-ethyl-5-fluoro-9-hydroxy-1-(2-hydroxyethyl)-4-methyl-1,2,3,9,12,15-hexahydro-10H,13H-benzo[de]pyrano[3′,4′:6,7]indolizino[1,2-b]quinoline-10,13-dione] | 98.1% | – | – | – | EC50 (A375; Homo sapiens, A-375): 0.7 nM; Emax (A375; Homo sapiens, A-375): 100%; EC50 (Calu-6; Homo sapiens): 0.2 nM
8 | CC[C@@]1(O)C(=O)OCc2c1cc1n(c2=O)Cc2c-1nc1cc(F)c(C)c3c1c2[C@@H](NC(=O)[C@@H]1C[C@H](O)CN1C(C)=O)CC3 [Example 2-38, (2S,4S)-1-acetyl-N-((1S,9S)-9-ethyl-5-fluoro-9-hydroxy-4-methyl-10,13-dioxo-2,3,9,10,13,15-hexahydro-1H,12H-benzo[de]pyrano[3′,4′:6,7]indolizino[1,2-b]quinolin-1-yl)-4-hydroxypyrrolidine-2-carboxamide] | 96.4% | 30.9 nM | 98.7% | 12.9 nM | –
9 | CCc1c2c(nc3ccc(O)cc13)-c1cc3c(c(=O)n1C2)COC(=O)[C@]3(O)CC [Example 1-C, reference compound] | – | – | – | – | EC50 (A375; Homo sapiens, A-375): 4.3 nM; Emax (A375; Homo sapiens, A-375): 99.5%; EC50 (Calu-6; Homo sapiens): 2.6 nM
10 | CC[C@@]1(O)C(=O)OCc2c1cc1n(c2=O)Cc2c-1nc1cc3c(c4c1c2C(CCCO)CC4)OCO3 (single isomer, unassigned) [Example 2-59] | 98.4% | – | – | – | EC50 (A375; Homo sapiens, A-375): 0.8 nM; Emax (A375; Homo sapiens, A-375): 100%; potency compared with compound 1-A and 1-C (A375): higher potency than compound 1-A and 1-C; EC50 (Calu-6; Homo sapiens): 0.2 nM
11 | CC[C@@]1(O)C(=O)OCc2c1cc1n(c2=O)Cc2c-1nc1cc(Cl)c(C)c3c1c2[C@@H](N)CC3 [Example 1-8, (1S,9S)-1-amino-5-chloro-9-ethyl-9-hydroxy-4-methyl-1,2,3,9,12,15-hexahydro-10H,13H-benzo[de]pyrano[3′,4′:6,7]indolizino[1,2-b]quinoline-10,13-dione] | 98.8% | 1.2 nM | 98.8% | 0.5 nM | –
12 | CC[C@@]1(O)C(=O)OCc2c1cc1n(c2=O)Cc2c-1nc1cc(F)c(Cl)c3c1c2[C@@H](NC(=O)C(C)(C)CO)CC3 [Example 2-34, N-((1S,9S)-4-chloro-9-ethyl-5-fluoro-9-hydroxy-10,13-dioxo-2,3,9,10,13,15-hexahydro-1H,12H-benzo[de]pyrano[3′,4′:6,7]indolizino[1,2-b]quinolin-1-yl)-3-hydroxy-2,2-dimethylpropanamide] | 99.4% | 0.8 nM | 98.9% | 0.5 nM | –
13 | CC[C@@]1(O)C(=O)OCc2c1cc1n(c2=O)Cc2c-1nc1cc(Cl)cc3c1c2[C@@H](NC(=O)CO)CC3 [Example 2-12, N-((1S,9S)-5-chloro-9-ethyl-9-hydroxy-10,13-dioxo-2,3,9,10,13,15-hexahydro-1H,12H-benzo[de]pyrano[3′,4′:6,7]indolizino[1,2-b]quinolin-1-yl)-2-hydroxyacetamide] | 98.9% | 6.8 nM | 99.9% | 4.4 nM | –
14 | CC[C@@]1(O)C(=O)OCc2c1cc1n(c2=O)Cc2c-1nc1cc(F)cc3c1c2[C@@H](N)CC3 [Example 1-22, (1S,9S)-1-amino-9-ethyl-5-fluoro-9-hydroxy-1,2,3,9,12,15-hexahydro-10H,13H-benzo[de]pyrano[3′,4′:6,7]indolizino[1,2-b]quinoline-10,13-dione methanesulfonate] | 99.2% | 1.4 nM | 100% | 0.6 nM | –
15 | CC[C@@]1(O)C(=O)OCc2c1cc1n(c2=O)Cc2c-1nc1cc(F)c(Cl)c3c1c2[C@@H](N)CC3 [Example 1-26, ((1S,9S)-1-amino-4-chloro-9-ethyl-5-fluoro-9-hydroxy-1,2,3,9,12,15-hexahydro-10H,13H-benzo[de]pyrano[3′,4′:6,7]indolizino[1,2-b]quinoline-10,13-dione 2,2,2-trifluoroacetate salt] | 98.1% | 1 nM | 98.1% | 0.3 nM | –
16 | CC[C@@]1(O)C(=O)OCc2c1cc1n(c2=O)Cc2c-1nc1cc3c(c4c1c2C(CCCO)CC4)OCO3 (single isomer, unassigned) [Example 2-60] | – | – | – | – | EC50 (A375): 0.8 nM; Emax (%) (A375): 100.0%; potency compared with compound 1-A and 1-C (A375): higher potency than compound 1-A and 1-C; EC50 (Calu-6): 0.2 nM; Emax (%) (Calu-6): 98.2%
17 | CC[C@@]1(O)C(=O)OCc2c1cc1n(c2=O)Cc2c-1nc1cc(F)c(C)c3c1c2[C@@H](NC(=O)CC(O)C[N+](C)(C)C)CC3 (stereo partly drawn) [Example 2-16, 4-(((1S,9S)-9-ethyl-5-fluoro-9-hydroxy-4-methyl-10,13-dioxo-2,3,9,10,13,15-hexahydro-1H,12H-benzo[de]pyrano[3′,4′:6,7]indolizino[1,2-b]quinolin-1-yl)amino)-2-hydroxy-N,N,N-trimethyl-4-oxobutan-1-aminium] | 87.9% | 487 nM | 77.1% | 247 nM | –
18 | CC[C@@]1(O)C(=O)OCc2c1cc1n(c2=O)Cc2c-1nc1cc(F)c(C)c3c1c2[C@@H](NC(=O)[C@@H]1C[C@@H](O)CN1C(C)=O)CC3 [Example 2-17, (2S,4R)-1-acetyl-N-((1S,9S)-9-ethyl-5-fluoro-9-hydroxy-4-methyl-10,13-dioxo-2,3,9,10,13,15-hexahydro-1H,12H-benzo[de]pyrano[3′,4′:6,7]indolizino[1,2-b]quinolin-1-yl)-4-hydroxypyrrolidine-2-carboxamide] | 94.6% | 123 nM | 94.9% | 44.9 nM | –
19 | CC[C@@]1(O)C(=O)OCc2c1cc1n(c2=O)Cc2c-1nc1cc(F)c(C)c3c1c2[C@@H](NC(=O)C1CCCC1O)CC3 (single isomer, unassigned) [Example 2-10] | – | – | – | – | EC50 (A375): 0.8 nM; Emax (%) (A375): 99.9%; EC50 (Calu-6): 0.2 nM; Emax (%) (Calu-6): 98.9%
20 | CC[C@@]1(O)C(=O)OCc2c1cc1n(c2=O)Cc2c-1nc1cc3c(c4c1c2[C@@H](NC(=O)CO)CC4)OC(F)(F)O3 [Example 2-27, N-((1S,10S)-10-ethyl-5,5-difluoro-10-hydroxy-11,14-dioxo-2,3,10,11,14,16-hexahydro-1H,13H-benzo[de][1,3]dioxolo[4,5-g]pyrano[3′,4′:6,7]indolizino[1,2-b]quinolin-1-yl)-2-hydroxyacetamide] | 99.5% | 10.7 nM | 99.5% | 3.9 nM | –
